Data set [1] in a line: MTT toxicity on PBMC infected by HIV-1 AZT-resistant strain 018c. Conditions: human. The procedure: Collect cells with curette, infect cells with 10^−2 AZT sensitive (018a) or AZT resistant (018c) virus strain liquid, and adsorb for 2 hours, Wash off unabsorbed virus with 1640 culture medium without serum, prepare cells infected by virus to 1×10^6/ml with culture solution, and inoculate on 96-pore culture plate, 100 μl/pore. […] Set cell control group and virus infected cell control group. Incubate under 37° C. and 5% CO2. On the fourth day (96 hours), pipette out the supernatant liquid and store under −20° C. for determination of HIV-1 P24 antigen titer and calculation of drug inhibitory action. Add MTT staining to cells for determination of cytotoxicity. Determination of cytotoxicity by MTT staining: Add 10 μl of 5 mg/ml MTT stain into each pore, continue to incubate under 37° C., 5% CO2 and saturated humidity for 4 hours. […] Determine the HIV-1 P24 antigen titer according to the operation procedure provided by the HIV-1 P24 antigen reagent kit. Compare the drug-added group with virus control group. […] Calculation method of 50% toxic concentration (CC50), 50% effective concentration (EC50) and selection index (SI): […]

For data set [2], the target named is T1, human glucocorticoid receptor (Homo sapiens, UniProt P04150).
T1 construct: expressed in transfected cells; host or cells: CV-1 cells
T1 sequence (P04150 1-777): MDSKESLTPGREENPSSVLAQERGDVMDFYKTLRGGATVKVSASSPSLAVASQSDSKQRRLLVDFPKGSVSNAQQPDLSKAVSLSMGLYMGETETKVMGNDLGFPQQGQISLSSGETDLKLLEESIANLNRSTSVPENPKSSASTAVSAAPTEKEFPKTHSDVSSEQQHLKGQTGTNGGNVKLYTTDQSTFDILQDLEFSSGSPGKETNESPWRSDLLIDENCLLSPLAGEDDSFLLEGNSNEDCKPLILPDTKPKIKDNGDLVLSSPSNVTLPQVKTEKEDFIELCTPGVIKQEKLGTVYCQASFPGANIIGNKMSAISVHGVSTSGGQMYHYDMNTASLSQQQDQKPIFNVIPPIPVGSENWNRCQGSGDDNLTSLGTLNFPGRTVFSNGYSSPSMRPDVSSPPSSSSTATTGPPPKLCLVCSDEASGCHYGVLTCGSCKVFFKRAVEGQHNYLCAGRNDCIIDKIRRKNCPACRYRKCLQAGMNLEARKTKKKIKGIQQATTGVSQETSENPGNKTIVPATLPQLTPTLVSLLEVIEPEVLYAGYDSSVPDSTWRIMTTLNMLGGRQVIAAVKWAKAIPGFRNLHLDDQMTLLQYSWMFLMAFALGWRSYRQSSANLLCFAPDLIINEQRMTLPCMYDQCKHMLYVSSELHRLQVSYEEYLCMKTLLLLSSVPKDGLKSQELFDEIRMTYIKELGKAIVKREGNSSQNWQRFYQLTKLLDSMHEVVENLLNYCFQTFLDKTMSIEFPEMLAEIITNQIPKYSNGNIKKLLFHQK
As to the kind of experiment: Antagonism on dexamethasone in CV-1 cells cotransfected with GR and luciferase reporter. In kind it is cell-based. The procedure: Inoculate (6×10^5) of CV-1 cells into cell culture dish of 60 mm diameter using phenol red-free low-sugar DMEM containing 10% FBS as culture medium and incubate overnight under 37° C. and 5% CO2. Suction according to 1:5 ratio pipet 2 μg of plasmid carried GR genes and luciferase reporting genes, cotransfect CV-1 cells with FuGene 6 transfection reagent (from Roche), and incubate for 8 hours under above conditions, Inoculate the transfected cells into 96-pore micro culture plate, 8000 cells/100 μl/pore, and incubate cells to adhibit on the wall of dish. […] Discard the culture liquid, wash the cells twice with PBS, and pipet off all residual PBS. fragment the cells by CCLR Assay Kit (from Progema) for 15 min. Add 20 μl of fragmentation solution into 96 pore cell culture plate with white edge and white bottom, add CCLR substrate (from Progema), 100 μl/pore, and immediately detect the chemical luminescence count value caused by activated luciferase on Wallac 1420 Multilabel Counter.
In general terms: Reporter assays use an easily measured gene product as a stand-in for the process of interest.

Data set [3] has as its system HIV-1 AZT-resistant strain 018c P24 antigen. As to the kind of experiment: Inhibition of HIV-1 018c P24 antigen in PBMC cell culture. It counts as cell-based. Particulars: for EC50: Human immunodeficiency virus 1, PBMC, 2 h, PBMC, administration after adsorbing 2 hours; for EC50 / SI: 018c; for SI: SI=CC50/EC50. The procedure: Collect cells with curette, infect cells with 10^−2 AZT sensitive (018a) or AZT resistant (018c) virus strain liquid, and adsorb for 2 hours, Wash off unabsorbed virus with 1640 culture medium without serum, prepare cells infected by virus to 1×10^6/ml with culture solution, and inoculate on 96-pore culture plate, 100 μl/pore. […] Set cell control group and virus infected cell control group. Incubate under 37° C. and 5% CO2. On the fourth day (96 hours), pipette out the supernatant liquid and store under −20° C. for determination of HIV-1 P24 antigen titer and calculation of drug inhibitory action. Add MTT staining to cells for determination of cytotoxicity. Determination of cytotoxicity by MTT staining: Add 10 μl of 5 mg/ml MTT stain into each pore, continue to incubate under 37° C., 5% CO2 and saturated humidity for 4 hours. […] Determine the HIV-1 P24 antigen titer according to the operation procedure provided by the HIV-1 P24 antigen reagent kit. Compare the drug-added group with virus control group. […] Calculation method of 50% toxic concentration (CC50), 50% effective concentration (EC50) and selection index (SI):
(3) Calculation Method of Selection Index (SI) on HIV-1 P24 Antigen in Cell Culture SI=CC50/EC50

Structures are written as SMILES. Converted amounts (≈) assume the structure as drawn.

In general, CC50 refers to the concentration that lowers cell viability or growth by half. A higher CC50 goes with lower toxicity to the cells. As a reminder, the IC50 is the concentration that inhibits the measured activity by half. A lower IC50 goes with inhibition by little substance. In general, EC50 refers to the concentration giving half of the maximal effect. Low readings indicate an effect from little substance, high ones a need for much substance.

In the case of `CC#C[C@]1(O)CC[C@H]2[C@@H]3CCC4=CC(=O)CCC4=C3[C@@H](c3ccc(N(C)C4CCCCC4)cc3)C[C@@]21C` [Cymipristone, 11β-[4-(N-methyl-N-cyclohexylamino)phenyl]-17α-(1-propynyl)-17β-hydroxyl-4,9-estradiene-3-one], the CC50 at 96 h in data set [1] (50% toxic concentration CC50, Experiment 1) was 103 µg/mL (≈ 207 µM); in data set [1] (50% toxic concentration CC50, Experiment 2), 104 µg/mL (≈ 210 µM). The same molecule yielded an IC50 in data set [2] of 0.26 ± 0.02 nM. For the same molecule, the “Antagonistic activity on human glucocorticoid receptor function caused by dexamethasone (in words)” value in data set [2] (gene cotransfected live cells) was “significant antagonistic activity”. The EC50 in data set [3] (Average) was found to be 7.9 µg/mL (≈ 15.9 µM); in data set [3] (Experiment 1), 8.42 µg/mL (≈ 16.9 µM); in data set [3] (Experiment 2), 7.38 µg/mL (≈ 14.8 µM). The figures for the SI in data set [3] (Average), in data set [3] (Experiment 1) and in data set [3] (Experiment 2) were 13.18, 12.21 and 14.15, respectively. Besides, in data set [3] (conclusion), the “Cross resistance with zidovudine (AZT) (in words)” value is “no cross resistance”.

The values above are taken from patent US20090111781A1, “Use of Cymipristone Type Compounds in Aids Treatment” (SHANGHAI THREE-ALLIANCE BIOTECHNOLOGIES CO., LTD., priority 2005, published 2009).
